Data from US20250213558A1, “T-TYPE CALCIUM CHANNEL MODULATORS COMPRISING A PIPERAZINE OR 1,4-DIAZEPANE CORE AND METHODS OF USE THEREOF” (Praxis Precision Medicines, Inc., priority 2022, published 2025).
Where two headings read alike, the source gives them in different places.

Tests used:
absence seizures = conditions: childhood absence epilepsy, cited from earlier work
[1] = target: T1, Human Cav3.1 calcium channel (Homo sapiens, UniProt O43497); experiment: Human Cav3.1 calcium channel patch clamp assay (SyncroPatch 384PE; single point and IC50, voltage dependent block); assay type: cell-based; conditions: HEK-293 natClytin/TASK1+Cav3.1 cell line; for % Inhibition (Single Point Data): Testing Conc 1.25, patch clamp; for IC50: voltage dependent block (VDB), read-out: Cav3.1 IC50
T1 construct: expressed in transfected cells; host or cells: HEK-293 natClytin/TASK1+Cav3.1 cell line
In short: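 Automated whole-cell patch clamp at room temperature, cells held at −120 mV; 100 ms step to −20 mV (resting block), then 1600 ms at −65 mV and a second −20 mV step (voltage-dependent block), every 15 s. Peak currents averaged over last 3 sweeps; % inhibition relative to nickel-sensitive current.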

[2] = at 16 weeks, assessed by video-EEG recordings

T1 sequence (O43497 whole entry): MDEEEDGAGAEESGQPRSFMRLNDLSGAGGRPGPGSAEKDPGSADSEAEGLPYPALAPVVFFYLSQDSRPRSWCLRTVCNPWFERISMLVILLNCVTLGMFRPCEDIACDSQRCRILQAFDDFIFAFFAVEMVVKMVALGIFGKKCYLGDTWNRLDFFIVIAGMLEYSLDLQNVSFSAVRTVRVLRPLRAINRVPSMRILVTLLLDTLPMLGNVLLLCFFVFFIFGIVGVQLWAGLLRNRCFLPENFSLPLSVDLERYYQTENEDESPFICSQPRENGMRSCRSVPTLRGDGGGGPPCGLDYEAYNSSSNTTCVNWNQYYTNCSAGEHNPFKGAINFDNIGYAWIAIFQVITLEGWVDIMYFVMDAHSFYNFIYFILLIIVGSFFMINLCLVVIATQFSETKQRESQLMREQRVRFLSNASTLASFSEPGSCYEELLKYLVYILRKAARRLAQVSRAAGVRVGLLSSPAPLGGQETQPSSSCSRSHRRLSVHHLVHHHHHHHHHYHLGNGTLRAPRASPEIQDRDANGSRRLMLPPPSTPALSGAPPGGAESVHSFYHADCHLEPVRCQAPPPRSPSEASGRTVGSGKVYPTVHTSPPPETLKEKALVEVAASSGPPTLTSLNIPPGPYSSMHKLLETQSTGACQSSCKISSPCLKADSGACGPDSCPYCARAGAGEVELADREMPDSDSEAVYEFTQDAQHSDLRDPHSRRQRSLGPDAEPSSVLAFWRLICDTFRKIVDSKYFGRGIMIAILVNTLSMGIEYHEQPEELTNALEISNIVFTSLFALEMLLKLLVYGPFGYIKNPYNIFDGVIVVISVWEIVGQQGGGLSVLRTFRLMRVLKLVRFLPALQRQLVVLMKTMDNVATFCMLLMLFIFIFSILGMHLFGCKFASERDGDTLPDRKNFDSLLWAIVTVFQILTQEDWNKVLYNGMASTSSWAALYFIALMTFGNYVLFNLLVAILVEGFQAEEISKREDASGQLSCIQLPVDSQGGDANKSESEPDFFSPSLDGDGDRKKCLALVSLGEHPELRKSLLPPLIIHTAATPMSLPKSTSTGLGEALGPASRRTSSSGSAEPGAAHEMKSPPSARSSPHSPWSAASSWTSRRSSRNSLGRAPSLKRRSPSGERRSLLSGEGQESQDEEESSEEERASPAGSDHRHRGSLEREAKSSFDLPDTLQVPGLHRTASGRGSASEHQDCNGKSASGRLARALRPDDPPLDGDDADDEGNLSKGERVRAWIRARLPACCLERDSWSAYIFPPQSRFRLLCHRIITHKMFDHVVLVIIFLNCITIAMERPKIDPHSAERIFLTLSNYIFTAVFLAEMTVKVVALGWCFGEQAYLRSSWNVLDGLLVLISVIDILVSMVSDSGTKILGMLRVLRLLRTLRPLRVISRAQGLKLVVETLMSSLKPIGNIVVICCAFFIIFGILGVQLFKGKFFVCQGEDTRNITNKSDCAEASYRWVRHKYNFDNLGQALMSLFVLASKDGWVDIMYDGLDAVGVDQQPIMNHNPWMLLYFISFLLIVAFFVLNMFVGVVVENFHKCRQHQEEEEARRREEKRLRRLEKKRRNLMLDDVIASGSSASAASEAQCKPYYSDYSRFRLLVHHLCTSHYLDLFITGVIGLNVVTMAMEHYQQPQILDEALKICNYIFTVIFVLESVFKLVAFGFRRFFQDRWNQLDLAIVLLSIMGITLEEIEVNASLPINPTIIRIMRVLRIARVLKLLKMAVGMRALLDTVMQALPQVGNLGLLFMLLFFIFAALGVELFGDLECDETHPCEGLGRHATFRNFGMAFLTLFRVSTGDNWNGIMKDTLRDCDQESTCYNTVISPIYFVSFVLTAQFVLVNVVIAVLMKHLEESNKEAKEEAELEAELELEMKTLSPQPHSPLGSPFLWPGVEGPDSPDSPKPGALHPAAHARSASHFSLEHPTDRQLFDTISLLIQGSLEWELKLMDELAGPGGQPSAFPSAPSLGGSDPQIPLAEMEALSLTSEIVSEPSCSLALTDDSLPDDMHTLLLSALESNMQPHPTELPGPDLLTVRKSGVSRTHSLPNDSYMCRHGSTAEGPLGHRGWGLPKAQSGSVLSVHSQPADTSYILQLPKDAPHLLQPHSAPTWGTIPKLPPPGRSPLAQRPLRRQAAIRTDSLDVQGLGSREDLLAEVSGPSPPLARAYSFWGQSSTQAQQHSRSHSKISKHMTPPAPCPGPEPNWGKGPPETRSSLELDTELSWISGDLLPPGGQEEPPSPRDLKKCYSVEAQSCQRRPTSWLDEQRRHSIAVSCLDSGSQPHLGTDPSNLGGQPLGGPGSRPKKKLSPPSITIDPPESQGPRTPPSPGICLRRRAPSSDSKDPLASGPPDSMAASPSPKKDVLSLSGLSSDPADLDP

SMILES	patients in whom the seizures were completely controlled (absence seizures; at 12 months)	patients in whom the seizures were completely controlled (absence seizures; [2])	% Inhibition (Single Point Data) [1]	IC50 [1]
CCC1(C)CC(=O)NC1=O (stereo not shown) [ethosuximide]	45%	53%	–	–
Nc1nnc(-c2cccc(Cl)c2Cl)c(N)n1 [Lamotrigine]	21%	29%	–	–
N#CC1(CN2C3CC2CN(CC(=O)Nc2cc(F)cc(Cl)c2)C3)CCC(F)(F)CC1 [Compound 52]	–	–	51.764%	853 nM
Cc1cc(F)cc2[nH]c(CN3CC4CC(C3)N4CCC3CCOCC3)nc12 [Compound 205]	–	–	16.681%	4680 nM
CC(C)(CCN1C[C@@H]2C[C@H]1CN2CC(=O)NC12CC3CC(CC(C3)C1)C2)C(F)(F)F [Compound 329]	–	–	59.633%	–
O=C(CN1CC2CC1CN2CCNC(=O)C1(C(F)(F)F)CCC1)Nc1cc(F)cc(Cl)c1 (stereo not shown) [Compound 228]	–	–	87.61%	242 nM
CC(C)(C)NC(=O)CN1C[C@@H]2C[C@H]1CN2CC(=O)Nc1cc(F)cc(Cl)c1 [Compound 58]	–	–	91.889%	–
Cc1cc(NC(=O)CN2C[C@@H]3C[C@H]2CN3CC(=O)NC2(C(F)(F)F)CC2)ccc1F [Compound 340]	–	–	50%	–
CC(C)(C)NC(=O)CN1C[C@@H]2C[C@H]1CN2CC(=O)Nc1cc(F)c(F)c(Cl)c1 [Compound 348]	–	–	–	< 78.2 nM
Cn1nc(C(C)(C)C)cc1NC(=O)CN1CC2CCC(C1)N2CC(=O)NC(C)(C)C [Compound 6]	–	–	10.343%	–
CC(C)(C)NC(=O)CN1C2CC1CN(CC(=O)Nc1ccc(F)c(Cl)c1)C2 [Compound 216]	–	–	97.034%	–
Cc1ccc(NC(=O)CN2C[C@@H]3C[C@H]2CN3CC(=O)NC(C)(C)C)cc1Cl [Compound 362]	–	–	–	371 nM
CC1(C(=O)NCCN2C3CC2CN(Cc2nc4c(Cl)cc(F)cc4[nH]2)C3)CC1 [Compound 121]	–	–	96.032%	254 nM
